# How the values were obtained:
# Test in all cases: relative viability (nuclei count vs DMSO), 5 days (fraction); higher = more cells survive
# [1] = compound: COc1ccc(-c2ccc3c(N4CCOC[C@@H]4C)nc(N4CCOC[C@@H]4C)nc3n2)cc1CO [AZD8055] + COc1cc2c(Oc3ccc(NC(=O)C4(C(=O)Nc5ccc(F)cc5)CC4)cc3F)ccnc2cc1OCCCN1CCOCC1 [Foretinib] (partner 0.25 µM)
# Method in brief: (§1)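 Relative viability equals treated-well nuclei counts divided by vehicle-well nuclei counts. Counts came from 4× images of lung cancer cell lines grown in 1536-well plates for 5 days after pin-tool dosing on the day after seeding. Dosing used one drug alone or a fixed anchor-drug dose plus five library-drug doses (not always all listed) in √10 steps, and values are medians of duplicate plates.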
# [2] = compound: COc1ccc(-c2ccc3c(N4CCOC[C@@H]4C)nc(N4CCOC[C@@H]4C)nc3n2)cc1CO [AZD8055] + CS(=O)(=O)N1CCN(Cc2cc3nc(-c4cccc5[nH]ncc45)nc(N4CCOCC4)c3s2)CC1 [Pictilisib] (partner 1 µM)
# Method in brief: as §1
# [3] = compound: COc1ccc(-c2ccc3c(N4CCOC[C@@H]4C)nc(N4CCOC[C@@H]4C)nc3n2)cc1CO [AZD8055] + NC(=O)Nc1cc(-c2cccc(F)c2)sc1C(=O)N[C@H]1CCCNC1 [AZD7762] (partner 0.2 µM)
# Method in brief: as §1
# [4] = compound: COc1ccc(-c2ccc3c(N4CCOC[C@@H]4C)nc(N4CCOC[C@@H]4C)nc3n2)cc1CO [AZD8055] + O=C(CCCCCCC(=O)Nc1ccccc1)NO [Vorinostat] (partner 1 µM)
# Method in brief: as §1
Cell Line,relative viability ([1]; first compound 0.01 µM),relative viability ([1]; first compound 0.03162 µM),relative viability ([1]; first compound 0.1 µM),relative viability ([1]; first compound 0.3162 µM),relative viability ([1]; first compound 1 µM),relative viability ([2]; first compound 0.01 µM),relative viability ([2]; first compound 0.03162 µM),relative viability ([2]; first compound 0.1 µM),relative viability ([2]; first compound 0.3162 µM),relative viability ([2]; first compound 1 µM),relative viability ([3]; first compound 0.01 µM),relative viability ([3]; first compound 0.03162 µM),relative viability ([3]; first compound 0.1 µM),relative viability ([3]; first compound 0.3162 µM),relative viability ([3]; first compound 1 µM),relative viability ([4]; first compound 0.01 µM),relative viability ([4]; first compound 0.03162 µM),relative viability ([4]; first compound 0.1 µM),relative viability ([4]; first compound 0.3162 µM),relative viability ([4]; first compound 1 µM)
ABC-1,1.2,0.909,0.997,0.701,0.324,0.78,0.659,0.556,0.438,0.334,0.879,0.766,1.02,0.406,0.495,1.07,1.15,1.12,0.466,0.533
HCC-15,1.05,0.969,0.755,0.537,0.445,0.806,0.685,0.631,0.369,0.338,1.26,1.18,1.21,0.885,0.559,0.833,0.844,0.762,0.468,0.333
NCI-H2170,1.07,1.04,0.868,0.451,0.397,0.273,0.255,0.213,0.222,0.23,1.04,0.733,0.502,0.293,0.226,0.815,0.734,0.487,0.271,0.226
PC-3 [JPC-3],1.12,1.12,1.1,0.774,0.492,0.616,0.81,0.645,0.633,0.381,0.772,0.681,0.728,0.37,0.399,0.849,0.902,0.631,0.534,0.495
NCI-H1993,0.696,0.584,0.51,0.503,0.577,0.752,0.701,0.892,0.637,0.896,0.646,0.377,0.402,0.366,0.516,0.55,0.474,0.358,0.287,0.407
NCI-H358,1.03,0.887,0.585,0.264,0.181,0.334,0.301,0.233,0.222,0.245,0.701,0.557,0.523,0.308,0.203,0.775,0.701,0.624,0.207,0.121
NCI-H1915,1.12,1.04,1.01,0.574,0.527,0.879,0.715,0.851,0.706,0.487,0.777,0.48,0.686,0.425,0.454,0.486,0.36,0.419,0.284,0.246
RERF-LC-KJ,0.963,0.754,0.771,0.535,0.392,0.566,0.452,0.426,0.309,0.289,1.26,1.08,0.659,0.402,0.434,0.819,0.665,0.575,0.446,0.384

# From the supplement of paper PMC10307832
